Tests used:
[1] = system: cultured adult S. haematobium worms; conditions: ref [14],[20]; cited from earlier work
all stages of S. mansoni = conditions: ref [14],[20]; cited from earlier work
[2] = system: cultured adult S. japonicum worms; conditions: ref [14],[20]; cited from earlier work
[3] = system: adult Schistosoma mansoni worms; assay: Worm killing of cultured adult worms, monitored over 144 hrs; format: cell-based; conditions: at the concentrations tested (10 and 50 µM)
[4] = system: adult Schistosoma mansoni worms; assay: Worm contraction of cultured adult worms; format: cell-based; conditions: after overnight culture with compound, 10 and 50 µM

Compound | Activity against cultured adult S. haematobium worms [1] | Activity against all stages of S. mansoni (all stages of S. mansoni) | Activity against cultured adult S. japonicum worms [2] | Time at which worms begin to die after compound is removed from culture media [3] [days] | Time for worms to return to normal length [4] [days]
N#Cc1c(-c2ccccc2)no[n+]1[O-] [Compound 2, 4-phenylfuroxan-3-carbonitrile] | active | active | active |  | 
O=C(C1CCCCC1)N1CC(=O)N2CCc3ccccc3C2C1 (centres unmarked) [PZQ, 2-(cyclohexylcarbonyl)-1,2,3,6,7,11b-hexahydro-4H-pyrazino[2,1-a]isoquinolin-4-one] |  |  |  | 4 to 5 | > 2

Source: publication PMC4160910 (European journal of medicinal chemistry, 2014)
